Experiments:
[1] = target: T1, reuptake of serotonine (5-HT) in synaptosomes (Rattus norvegicus, UniProt P31652); assay: Inhibition of 3H-5-HT reuptake in synaptosomes; format: biochemical; details: as described in WO 97/16451, read-out: 5-HT-uptake IC50
T1 construct: in synaptosomes as described in WO 97/16451; from tissue
Experimental: (§1) A number of compounds were tested for their ability to inhibit the reuptake of the monoamine neurotransmitters dopamine (DA) noradrenaline (NA) and serotonine (5-HT) in synaptosomes as described in WO 97/16451.
(§2) The test values are given as IC50 (the concentration (μM) of the test substance which inhibits the specific binding of ^3H-DA, ^3H-NA, or ^3H-5-HT by 50%).

[2] = target: T2, reuptake of dopamine (DA) in synaptosomes (Rattus norvegicus, UniProt P23977); assay: Inhibition of 3H-DA reuptake in synaptosomes; format: biochemical; details: as described in WO 97/16451, read-out: DA-uptake IC50
T2 construct: in synaptosomes as described in WO 97/16451; from tissue
T2 sequence (P23977 whole entry): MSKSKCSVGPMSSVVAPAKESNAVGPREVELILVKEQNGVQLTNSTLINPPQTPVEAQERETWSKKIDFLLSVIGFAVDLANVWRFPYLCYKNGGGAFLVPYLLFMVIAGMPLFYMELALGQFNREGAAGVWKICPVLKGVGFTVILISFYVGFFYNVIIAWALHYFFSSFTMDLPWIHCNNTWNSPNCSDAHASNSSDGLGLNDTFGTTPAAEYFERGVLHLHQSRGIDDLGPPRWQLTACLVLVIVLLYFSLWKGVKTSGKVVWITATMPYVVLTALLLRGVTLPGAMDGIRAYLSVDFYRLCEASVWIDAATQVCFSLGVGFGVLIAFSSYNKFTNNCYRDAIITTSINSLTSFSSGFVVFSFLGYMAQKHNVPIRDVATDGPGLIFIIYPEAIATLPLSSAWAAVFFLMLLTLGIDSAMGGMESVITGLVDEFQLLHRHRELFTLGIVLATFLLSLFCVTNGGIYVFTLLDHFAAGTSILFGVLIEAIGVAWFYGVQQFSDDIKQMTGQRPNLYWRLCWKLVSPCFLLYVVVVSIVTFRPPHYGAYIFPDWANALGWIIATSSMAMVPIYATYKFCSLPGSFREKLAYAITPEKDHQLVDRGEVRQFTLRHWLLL
Experimental: as §1, §2

T1 sequence (P31652 whole entry): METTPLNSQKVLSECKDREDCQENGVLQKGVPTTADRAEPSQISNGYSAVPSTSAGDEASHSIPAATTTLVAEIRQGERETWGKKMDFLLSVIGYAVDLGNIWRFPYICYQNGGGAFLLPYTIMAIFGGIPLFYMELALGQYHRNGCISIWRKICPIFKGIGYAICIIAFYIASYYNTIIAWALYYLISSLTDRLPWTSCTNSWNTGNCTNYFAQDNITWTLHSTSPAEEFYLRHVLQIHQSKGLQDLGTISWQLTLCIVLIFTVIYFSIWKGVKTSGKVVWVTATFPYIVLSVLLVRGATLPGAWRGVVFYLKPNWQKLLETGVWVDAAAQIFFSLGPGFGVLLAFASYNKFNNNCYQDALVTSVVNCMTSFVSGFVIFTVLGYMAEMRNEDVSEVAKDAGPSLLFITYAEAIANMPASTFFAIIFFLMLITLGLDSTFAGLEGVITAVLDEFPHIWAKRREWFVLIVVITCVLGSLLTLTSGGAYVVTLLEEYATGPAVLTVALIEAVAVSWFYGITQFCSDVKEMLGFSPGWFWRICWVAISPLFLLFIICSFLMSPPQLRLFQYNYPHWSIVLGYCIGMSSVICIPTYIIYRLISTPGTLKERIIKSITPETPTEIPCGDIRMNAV

Row | melting point [°C] | IC50 [1] [µM] | IC50 [2] [µM] | SMILES
1 | 128 to 132 | 0.0023 | 0.49 | Clc1ccc(NC2CCC3(CCNCC3)CC2)cc1Cl [2nd last compound of method A, (3-Aza-spiro[5.5]undec-9-yl)-(3,4-dichloro-phenyl)-amine]
2 | 126 to 128 | 0.002 | 1.2 | O=c1ccc2ccc(OC3CCC4(CCNCC4)CC3)cc2o1 [3rd compound of method A, 7-(3-Aza-spiro[5.5]undec-9-yloxy)-chromen-2-one]

— patent US8049012B2, “3-aza-spiro[5.5]undecane derivatives and their use as monoamine neurotransmitter re-uptake inhibitors” (Neurosearch A/S, priority 2005, dated 2011)
